# From ChEMBL document CHEMBL1154582, “Thonningianins A and B, new antioxidants from the African medicinal herb Thonningia sanguinea” (J Nat Prod, 2000)
# pIC50: −log10 of the molar value. Calls of active or inactive are those of the source. The calls are words filed in the database; no cut-off is given here.
# Experiments:
# Format in all cases: functional
# [1] = DPPH radical scavenging activity by ESR spectra
# [2] = DPPH radical scavenging activity at 25 uM by ESR spectra
# [3] = DPPH radical scavenging activity at 34.5 uM by ESR spectra
Compound,pIC50 [1],Activity [2],Activity [3] [%]
O=C(O[C@@H]1[C@@H](O)[C@H](Oc2cc(O)c(C(=O)CCc3ccccc3)c(O)c2)O[C@@H]2COC(=O)c3cc(O)c(O)c(O)c3-c3c(cc(O)c(O)c3O)C(=O)O[C@@H]12)c1cc(O)c(O)c(O)c1 [THONNINGIANIN A],5.10,Active,–
O=C1OC[C@H]2O[C@@H](Oc3cc(O)c(C(=O)CCc4ccccc4)c(O)c3)[C@H](O)[C@@H](O)[C@@H]2OC(=O)c2cc(O)c(O)c(O)c2-c2c1cc(O)c(O)c2O [THONNINGIANIN B],4.68,–,90
